This experiment has as its target T1, D-3-phosphoglycerate dehydrogenase (Homo sapiens, UniProt O43175).
T1 sequence (O43175 whole entry): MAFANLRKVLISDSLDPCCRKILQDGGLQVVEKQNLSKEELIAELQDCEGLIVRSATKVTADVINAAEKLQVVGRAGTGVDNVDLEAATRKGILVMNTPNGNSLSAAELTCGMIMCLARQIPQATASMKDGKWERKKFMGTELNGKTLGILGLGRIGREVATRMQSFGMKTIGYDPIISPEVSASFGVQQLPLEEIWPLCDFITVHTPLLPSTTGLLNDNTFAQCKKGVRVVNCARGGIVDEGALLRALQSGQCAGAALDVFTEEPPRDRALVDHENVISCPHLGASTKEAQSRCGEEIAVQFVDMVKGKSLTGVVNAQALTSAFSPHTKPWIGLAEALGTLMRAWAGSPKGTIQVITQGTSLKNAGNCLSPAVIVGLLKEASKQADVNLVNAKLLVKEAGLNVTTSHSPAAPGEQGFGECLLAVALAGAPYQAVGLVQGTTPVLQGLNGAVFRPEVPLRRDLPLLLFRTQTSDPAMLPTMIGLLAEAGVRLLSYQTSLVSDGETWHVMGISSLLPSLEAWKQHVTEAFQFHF
As to the kind of experiment: Enzyme Assay: PHGDH assay buffer contained 50 mM TEA pH 8.0, 10 mM MgCl2, 0.05% BSA, and 0.01% Tween-20. PHGDH enzyme buffer consisted of assay buffer with 20 nM PHGDH and 0.2 mg/mL diaphorase. PHGDH substrate buffer contained 0.3 mM NAD 1.25 mM glutamate, 0.1 mM 3-phosphoglycerate, 0.2 mM resazurin, 1 μM PSAT1, and 1 μM PSPH. qHTS was performed in 1536-well plates dispensed with a BioRAPTR FRD. Each well contained equal volumes of substrate buffer […]. Plates were read at 0 minutes and 20 minutes at room temperature with a ViewLux uHTS Microplate Imager (PerkinElmer). Follow-up assays were performed in black 384-well plates (Greiner) in 20 μL of enzyme buffer to which compounds were added in dose-response with an HP D300 digital dispenser (Hewlett-Packard), followed by addition of 20 μL of substrate buffer. Plates were incubated at room temperature (25° C.) and read at 0 and 20 minutes with a Spectramax M5 plate reader (Molecular Devices) in fluorescence intensity mode with a λex=550 nm and λem=600 nm (emission cutoff=590 nm).

As a reminder, the IC50 is the point on the concentration scale where inhibition reaches its midpoint.

SMILES strings stand for the structures.

`Cc1cc(C)nc(NC(=S)N2CCN(c3cncnc3)CC2)c1` had an IC50 of over 20 µM.

The values above are taken from ChEMBL document CHEMBL5728931, “Inhibitors of phosphoglycerate dehydrogenase (PHGDH) and uses thereof” (2022).
